Test results: a compilation of properties of binary mixtures (doi:10.1007/s10953-021-01127-x)

Experiment: xn = mol fraction of the nth substance listed
Conditions: 100 kPa

CCCC[n+]1ccn(C)c1C.F[B-](F)(F)F + O=C1CCCN1
speed of sound [m/s]
Conditions	293.15 K	298.15 K	303.15 K	308.15 K
x1 = 0.0698	1659.6	1644.9	1629.3	1615.7
x1 = 0.1052	–	1649.6	1634.8	1621.9
x1 = 0.1469	–	–	1640.6	1628.7
x1 = 0.1948	1670.6	1659.8	–	1634.9
x1 = 0.2495	1672.1	1662.8	–	1638.3
x1 = 0.2945	1671.9	1663.3	1652	1640.1
x1 = 0.3428	1670.8	1662	1651.2	1639.9
x1 = 0.3964	1666.8	1658.3	–	1637.2
x1 = 0.4419	1661.9	–	1643.3	1633
x1 = 0.5004	1653.8	1645.7	1635.6	1625.8
x1 = 0.5563	1645.8	1637.1	1626.5	1617.3
x1 = 0.5949	1640.2	1630.9	1620.4	1611.1
x1 = 0.6419	–	1623.6	1613.1	1603.7
x1 = 0.6984	1626.6	1616.1	1605.4	1595.6
x1 = 0.7521	1622.1	–	1599.8	1589.4
x1 = 0.8031	–	1608.8	1596.7	1586.2
x1 = 0.8549	1623.2	1610.3	1597.8	1586.8
x1 = 0.9021	–	1615.8	1603.4	1591.6
x1 = 0.9564	1642.5	1628.7	–	1603.7
